Several values for one entry are separate records, joined by “and”; a condition that tells them apart may be missing. Equal entries are not always repeated.
Details: Liquid, Vibrating tube method

CCCCCC(=O)OCC(COC(=O)CCCCC)(COC(=O)CCCCC)COC(=O)CCCCC [pentaerythritol tetrahexanoate]
Details | mass density
283.14 K, 6785.3 kPa | 1008.1 kg/m3
283.14 K, 6787.6 kPa | 1008 kg/m3 and 1008.2 kg/m3
283.14 K, 6787.7 kPa | 1008.1 kg/m3
283.14 K, 6787.9 kPa | 1008.1 kg/m3 and 1008 kg/m3
283.14 K, 30862 kPa | 1021 kg/m3
283.14 K, 30898 kPa | 1021 kg/m3
283.14 K, 30915 kPa | 1021 kg/m3
283.14 K, 32175 kPa | 1021.8 kg/m3
283.14 K, 32194 kPa | 1021.7 kg/m3
283.14 K, 32218 kPa | 1021.7 kg/m3
283.14 K, 32238 kPa | 1021.8 kg/m3
283.14 K, 32258 kPa | 1021.8 kg/m3
283.14 K, 32282 kPa | 1021.8 kg/m3
283.14 K, 32303 kPa | 1021.7 kg/m3
283.14 K, 32324 kPa | 1021.8 kg/m3
283.15 K, 90.7 kPa | 1004 kg/m3
283.15 K, 90.8 kPa | 1004.1 kg/m3
283.15 K, 90.9 kPa | 1004.2 kg/m3
283.15 K, 96 kPa | 1004.2 kg/m3
283.15 K, 96.1 kPa | 1004.2 kg/m3
283.15 K, 96.4 kPa | 1004.1 kg/m3 and 1004.2 kg/m3
283.15 K, 96.6 kPa | 1004.2 kg/m3
283.15 K, 96.7 kPa | 1004.2 kg/m3
283.15 K, 96.9 kPa | 1004.2 kg/m3
283.15 K, 97.3 kPa | 1004.1 kg/m3
283.15 K, 97.4 kPa | 1004.1 kg/m3 and 1004.2 kg/m3
283.15 K, 97.6 kPa | 1004 kg/m3 and 1004.2 kg/m3
283.15 K, 99.3 kPa | 1004.2 kg/m3
283.15 K, 101.4 kPa | 1004.2 kg/m3
283.15 K, 101.6 kPa | 1004.2 kg/m3
283.15 K, 102.1 kPa | 1004.2 kg/m3
283.15 K, 102.2 kPa | 1004.1 kg/m3 and 1004.2 kg/m3
283.15 K, 106.2 kPa | 1004.2 kg/m3
283.15 K, 106.9 kPa | 1004.1 kg/m3
283.15 K, 107 kPa | 1004.2 kg/m3
283.15 K, 107.4 kPa | 1004 kg/m3
283.15 K, 107.5 kPa | 1004.1 kg/m3
283.15 K, 107.7 kPa | 1004.2 kg/m3
283.15 K, 107.9 kPa | 1004.2 kg/m3 and 1004.3 kg/m3
283.15 K, 111.3 kPa | 1004.1 kg/m3
283.15 K, 111.5 kPa | 1004.2 kg/m3
283.15 K, 111.7 kPa | 1004.3 kg/m3
283.15 K, 112 kPa | 1004.2 kg/m3
283.15 K, 112.3 kPa | 1004.1 kg/m3
283.15 K, 112.4 kPa | 1004.2 kg/m3
283.15 K, 112.5 kPa | 1004.1 kg/m3
283.15 K, 112.7 kPa | 1004.2 kg/m3 and 1004.1 kg/m3
283.15 K, 113 kPa | 1004.1 kg/m3 and 1004.2 kg/m3
283.15 K, 113.2 kPa | 1004.3 kg/m3 and 1004.1 kg/m3
283.15 K, 113.4 kPa | 1004.2 kg/m3
283.15 K, 113.5 kPa | 1004.1 kg/m3
283.15 K, 113.9 kPa | 1004.2 kg/m3
283.15 K, 114.1 kPa | 1004.2 kg/m3
283.15 K, 114.4 kPa | 1004.1 kg/m3
283.15 K, 114.6 kPa | 1004.1 kg/m3
283.15 K, 114.8 kPa | 1004.3 kg/m3
283.15 K, 114.9 kPa | 1004.2 kg/m3 and 1004.1 kg/m3
283.15 K, 115.1 kPa | 1004.2 kg/m3
283.15 K, 115.4 kPa | 1004.2 kg/m3
283.15 K, 115.5 kPa | 1004.2 kg/m3
283.15 K, 115.8 kPa | 1004.2 kg/m3
283.15 K, 116 kPa | 1004.2 kg/m3
283.15 K, 116.3 kPa | 1004.2 kg/m3
283.15 K, 116.5 kPa | 1004.1 kg/m3
283.15 K, 116.7 kPa | 1004.2 kg/m3
283.15 K, 116.8 kPa | 1004.2 kg/m3
283.15 K, 117.2 kPa | 1004.1 kg/m3
283.15 K, 117.3 kPa | 1004.2 kg/m3 and 1004.3 kg/m3
283.15 K, 117.5 kPa | 1004.2 kg/m3
283.15 K, 117.9 kPa | 1004.2 kg/m3 and 1004.3 kg/m3
283.15 K, 118 kPa | 1004.1 kg/m3
283.15 K, 118.2 kPa | 1004.2 kg/m3
283.15 K, 118.4 kPa | 1004.2 kg/m3
283.15 K, 118.7 kPa | 1004.2 kg/m3
283.15 K, 118.9 kPa | 1004.2 kg/m3
283.15 K, 119.1 kPa | 1004.4 kg/m3 and 1004.2 kg/m3
283.15 K, 119.3 kPa | 1004 kg/m3
283.15 K, 119.6 kPa | 1004.2 kg/m3
283.15 K, 119.8 kPa | 1004.1 kg/m3
283.15 K, 119.9 kPa | 1004.3 kg/m3 and 1004.2 kg/m3
283.15 K, 120.1 kPa | 1004.1 kg/m3
283.15 K, 121.3 kPa | 1004.2 kg/m3
283.15 K, 121.7 kPa | 1004.2 kg/m3 and 1004.1 kg/m3
283.15 K, 122 kPa | 1004.3 kg/m3
283.15 K, 122.4 kPa | 1004.1 kg/m3
283.15 K, 122.5 kPa | 1004.3 kg/m3
283.15 K, 122.9 kPa | 1004.1 kg/m3
283.15 K, 123 kPa | 1004.2 kg/m3
283.15 K, 123.2 kPa | 1004.2 kg/m3
283.15 K, 123.6 kPa | 1004.3 kg/m3 and 1004.2 kg/m3
283.15 K, 123.7 kPa | 1004.1 kg/m3
283.15 K, 123.9 kPa | 1004.2 kg/m3 and 1004.1 kg/m3
283.15 K, 124.3 kPa | 1004.2 kg/m3
283.15 K, 124.6 kPa | 1004 kg/m3
283.15 K, 124.9 kPa | 1004.1 kg/m3
283.15 K, 125 kPa | 1004.2 kg/m3
283.15 K, 125.1 kPa | 1004.1 kg/m3
283.15 K, 125.3 kPa | 1004.2 kg/m3
283.15 K, 125.8 kPa | 1004 kg/m3
283.15 K, 126 kPa | 1004.3 kg/m3
283.15 K, 126.2 kPa | 1004.2 kg/m3 and 1004.1 kg/m3
283.15 K, 127.9 kPa | 1004.2 kg/m3
283.15 K, 128.1 kPa | 1004.3 kg/m3
283.15 K, 128.4 kPa | 1004.3 kg/m3
283.15 K, 134 kPa | 1004.1 kg/m3
283.15 K, 134.1 kPa | 1004.2 kg/m3
283.15 K, 134.3 kPa | 1004.1 kg/m3
283.15 K, 134.5 kPa | 1004.3 kg/m3
283.15 K, 135 kPa | 1004.2 kg/m3
283.15 K, 135.2 kPa | 1004.2 kg/m3
283.15 K, 135.3 kPa | 1004.1 kg/m3
283.15 K, 136 kPa | 1004.2 kg/m3
283.15 K, 136.4 kPa | 1004.2 kg/m3
283.15 K, 136.6 kPa | 1004.2 kg/m3 and 1004.1 kg/m3
283.15 K, 136.7 kPa | 1004.3 kg/m3
283.15 K, 136.9 kPa | 1004.1 kg/m3
283.15 K, 137.4 kPa | 1004.2 kg/m3
283.15 K, 137.6 kPa | 1004.3 kg/m3 and 1004.2 kg/m3
283.15 K, 137.9 kPa | 1004.3 kg/m3
283.15 K, 138.1 kPa | 1004.2 kg/m3
283.15 K, 138.8 kPa | 1004.2 kg/m3
283.15 K, 139 kPa | 1004.1 kg/m3 and 1004.3 kg/m3
283.15 K, 139.2 kPa | 1004.3 kg/m3 and 1004.2 kg/m3
283.15 K, 139.3 kPa | 1004.2 kg/m3
283.15 K, 139.7 kPa | 1004.2 kg/m3 and 1004.1 kg/m3 and 1004.3 kg/m3
283.15 K, 140.4 kPa | 1004.3 kg/m3
283.15 K, 140.6 kPa | 1004.3 kg/m3
283.15 K, 140.7 kPa | 1004.2 kg/m3
283.15 K, 141.1 kPa | 1004.2 kg/m3
283.15 K, 141.4 kPa | 1004.2 kg/m3
283.15 K, 141.6 kPa | 1004.2 kg/m3
283.15 K, 142.1 kPa | 1004.3 kg/m3
283.15 K, 142.5 kPa | 1004.2 kg/m3
283.15 K, 143 kPa | 1004.2 kg/m3 and 1004.1 kg/m3
283.15 K, 143.2 kPa | 1004.2 kg/m3
283.15 K, 144 kPa | 1004.2 kg/m3 and 1004.1 kg/m3
283.15 K, 144.2 kPa | 1004.3 kg/m3
283.15 K, 144.4 kPa | 1004.1 kg/m3
283.15 K, 144.7 kPa | 1004.1 kg/m3
283.15 K, 145.4 kPa | 1004.2 kg/m3
283.15 K, 145.9 kPa | 1004.3 kg/m3
283.15 K, 146.3 kPa | 1004.2 kg/m3
283.15 K, 146.6 kPa | 1004.2 kg/m3
283.15 K, 147.3 kPa | 1004.2 kg/m3

Reference: the NIST ThermoML archive (doi:10.1021/je060271a)
